Test results taken from patent US11524938B2, “Aromatic sulfonamide derivatives” (Bayer Pharma Aktiengesellschaft, priority 2016, dated 2022).

Assays:
[1] = target: T1, human P2X4 (Homo sapiens, UniProt Q99571); assay: Human P2X4 HEK Cell FLIPR Assay; assay type: cell-based; conditions: HEK293, HEK293 cells, agonist Bz-ATP at EC80; percentage of maximal inhibition; read-out: Human P2X4 HEK Cells (FLIPR Assay) avg Efficacy [%]
T1 sequence (Q99571 1-388): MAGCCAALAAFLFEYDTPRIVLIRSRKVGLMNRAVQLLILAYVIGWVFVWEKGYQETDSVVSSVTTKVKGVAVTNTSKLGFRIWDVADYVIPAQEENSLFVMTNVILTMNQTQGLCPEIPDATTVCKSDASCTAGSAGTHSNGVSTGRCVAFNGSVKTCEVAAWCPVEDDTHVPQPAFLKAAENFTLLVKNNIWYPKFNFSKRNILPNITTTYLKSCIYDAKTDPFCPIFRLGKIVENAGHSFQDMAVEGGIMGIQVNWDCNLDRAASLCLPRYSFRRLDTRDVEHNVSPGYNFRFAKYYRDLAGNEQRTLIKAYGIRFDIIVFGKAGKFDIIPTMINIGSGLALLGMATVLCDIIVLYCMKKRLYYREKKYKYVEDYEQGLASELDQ
How it was run: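 Calcium flux read by FLIPR for 120 sec after Bz-ATP challenge at EC80 (established each assay day), following 30 min room-temperature compound preincubation in dye-loaded stable human P2X4 HEK293 cells. Peak RFU over basal normalized to agonist control; IC50, maximal inhibition and Hill coefficient from triplicate means.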

[2] = target: T2, rat P2X4 (Rattus norvegicus, UniProt P51577); assay: FLIPR assay, rat P2X4 1321N1 Astrocytoma cells; assay type: cell-based; conditions: agonist Mg-ATP 5 μM (EC80)
T2 sequence (P51577 1-388): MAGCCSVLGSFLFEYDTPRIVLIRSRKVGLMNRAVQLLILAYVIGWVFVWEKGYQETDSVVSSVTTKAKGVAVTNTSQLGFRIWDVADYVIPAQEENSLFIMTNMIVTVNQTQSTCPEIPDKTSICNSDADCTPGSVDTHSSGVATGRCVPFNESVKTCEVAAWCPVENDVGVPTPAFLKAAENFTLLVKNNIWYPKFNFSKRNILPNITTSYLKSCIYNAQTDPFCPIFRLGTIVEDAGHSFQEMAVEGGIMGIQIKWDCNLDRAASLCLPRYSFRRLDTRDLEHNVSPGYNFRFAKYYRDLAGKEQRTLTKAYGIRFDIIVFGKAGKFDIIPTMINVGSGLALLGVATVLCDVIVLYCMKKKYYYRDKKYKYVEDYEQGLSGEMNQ
Procedure: 1321N1 Astrocytoma cells stably expressing human P2X4 or rat P2X4 or mouse P2X4 were plated in Collagen I TC-treated microplate at a seeding density of 10000 cells/well and incubated overnight. P2X4 function was assessed by measuring intracellular calcium changes using the calcium-chelating dye Fluo8-AM (Molecular Devices) on a fluorescent imaging plate reader (FLEX/FLIPR station; Molecular Devices). On the day of the assay, the medium was removed and the cells were incubated for 30 min at 37 °C and 5% CO2 in 30 μL of dye buffer (Hank's balanced salt solution, 10 mM HEPES, 1.8 mM CaCl2, 1 mM MgCl2, 2 mM probenecid, 5 mM D-glucose monohydrate, 5 μM Fluo8-AM, pH=7.4). Compounds diluted in probenecid buffer (Hank's balanced salt solution, 10 mM HEPES, 1.8 mM CaCl2, 1 mM MgCl2, 2 mM probenecid, 5 mM D-glucose monohydrate, pH=7.4) were added in a volume of 10 μL and allowed to incubate for 30 min at room temperature. The final assay DMSO concentration was 0.25%. The agonist, Mg-ATP (Sigma), was added in a volume of 10 μL at a concentration representing the EC80 value. EC80 was determined to be 0.5 μM for human and mouse P2X4 and 5 μM for rat P2X4. The fluorescence was measured for an interval of 120 sec at 2 sec intervals. The excitation and emission wavelengths used to monitor fluorescence were 470-495 nm and 515-575 nm, respectively. The data was analyzed based on the increase in peak relative fluorescence units (RFU) compared to the basal fluorescence and the data was normalized to the agonist control. The compounds were tested in triplicates per plate and mean values were plotted in Excel XLFit to determine IC50 values, percentage of maximal inhibition and the Hill coefficients.

[3] = test system: Sprague Dawley rats; assay: CFA-Induced Mechanical Hyperalgesia Model in Rat; assay type: in vivo; conditions: 3 oral doses, 26 h after CFA, vs vehicle
Procedure: Male Sprague Dawley rats were used. Mechanical hyperalgesia was induced by injecting […] of Complete Freund's Adjuvant (CFA) into the plantar surface of the left hind paw. Mechanical hyperalgesia was measured using the Pressure Application Measurement apparatus (Ugo Basile, Gemonio, Italy). Briefly, a linearly increasing pressure was applied to an area of approximately 50 mm^2 of the plantar side of the hind paw, until a behavioural response (paw withdrawal) was observed or until the pressure reached 1000 gf. The pressure at which the behavioural response occurred was recorded as the Paw Withdrawal Threshold (PWT). Both CFA-injected and contralateral PWTs were determined for each rat, in each treatment group and at each time point of the studies. Rats received 3 oral doses of test compound at approximately 12 hours interval starting 1 hour prior to CFA injection. Mechanical hyperalgesia testing was performed 2 hours before CFA injection and 2 hours after the last dosing (FIGS. 4a and 4b).
FIGS. 4a and 4b as nonbinding explanatory examples of compounds according to the invention represent Paw Withdrawal Threshold in gramm (y-axis) of the ipsilateral paw of all tested animals before CFA treatment and 26 h after CFA treatment and vehicle or Example 39 (FIG. 4a) or 326 (FIG. 4b) treatment. […]

How did the Emax [1] turn out when N#Cc1cnn(-c2ccc(NC(=O)Cc3ccccc3Cl)cc2S(N)(=O)=O)c1 [Example 39, 2-(2-Chlorophenyl)-N-[4-(4-cyano-1H-pyrazol-1-yl)-3-sulfamoylphenyl]acetamide] was run?
The Emax was 96%.

And the “Rat P2X4 1321N1 Astrocytoma Cells (FLIPR Assay) avg Efficacy [%]” value [2]?
The value was 87%.

What about the “Paw Withdrawal Threshold (PWT), ipsilateral paw” value [3] of the same compound?
Its value is “significantly increased PWT”.

With NS(=O)(=O)c1cc(NC(=O)Cc2ccccc2Cl)ccc1-c1cnn(C(F)F)c1 [Example 326, 2-(2-Chlorophenyl)-N-{4-[1-(difluoromethyl)-1H-pyrazol-4-yl]-3-sulfamoylphenyl}acetamide] as the compound, how does the Emax [1] read?
Its Emax is 95%.

What about the “Rat P2X4 1321N1 Astrocytoma Cells (FLIPR Assay) avg Efficacy [%]” value [2] of the same compound?
Its value is 99%.

And the “Paw Withdrawal Threshold (PWT), ipsilateral paw” value [3]?
Its value is “significantly increased PWT”.
